Patent US11970473B2, “Nootkatone derivatives and methods of using the same” (Arkansas State University—Jonesboro, priority 2021, dated 2024)
≈ marks a conversion by molar mass, not a printed value.

Tests used:
SF-295 = assay: NCI-60 cancer screen; type: cell-based, human; conditions: SF-295, CNS Cancer; 10 μM
DU-145 = assay: NCI-60 cancer screen; type: cell-based, human; conditions: DU-145, Prostate Cancer; 10 μM
TK-10 = assay: NCI-60 cancer screen; type: cell-based, human; conditions: TK-10, Renal Cancer; 10 μM
BT-549 = assay: NCI-60 cancer screen; type: cell-based, human; conditions: BT-549, Breast Cancer; 10 μM
[1] = tested on: S. epidermidis 700296 (Se); assay: Minimal inhibitory concentration (MIC) assay; type: cell-based; conditions: Staphylococcus epidermidis, S. epidermidis 700296; read-out: Antimicrobial activity (MIC) Se
How it was run: (§1)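 Compounds were diluted 2-fold from a starting level of 50 μg/ml, then tested for growth inhibition following the CLSI standard microdilution protocol, with three replicates per test.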

[2] = tested on: S. aureus ATCC 33592 (Sa92); assay: Minimal inhibitory concentration (MIC) assay; type: cell-based; conditions: Staphylococcus aureus, ATCC33592; S. aureus ATCC 33592, antibiotic-resistant strain; read-out: Antimicrobial activity (MIC) Sa92
How it was run: as §1

[3] = tested on: Enterococcus faecalis ATCC 29212 (Es12); assay: Minimal inhibitory concentration (MIC) assay; type: cell-based; conditions: ATCC29212; Enterococcus faecalis ATCC 29212; read-out: Antimicrobial activity (MIC) Es12
How it was run: as §1

[4] = tested on: S. aureus ATCC 700699 (Sa99); assay: Minimal inhibitory concentration (MIC) assay; type: cell-based; conditions: Staphylococcus aureus, ATCC700699; S. aureus ATCC 700699, antibiotic-resistant strain; read-out: Antimicrobial activity (MIC) Sa99
How it was run: as §1

[5] = tested on: Enterococcus faecium ATCC 700221 (Em21); assay: Minimal inhibitory concentration (MIC) assay; type: cell-based
How it was run: as §1

[6] = tested on: S. aureus ATCC 25923 (Sa23); assay: Minimal inhibitory concentration (MIC) assay; type: cell-based; conditions: Staphylococcus aureus, ATCC25923; S. aureus ATCC 25923, antibiotic susceptible strain; read-out: Antimicrobial activity (MIC) Sa23
How it was run: as §1

[7] = tested on: S. aureus BAA-2312 (Sa12); assay: Minimal inhibitory concentration (MIC) assay; type: cell-based; conditions: Staphylococcus aureus, BAA2312; S. aureus BAA-2312, antibiotic-resistant strain; read-out: Antimicrobial activity (MIC) Sa12
How it was run: as §1

[8] = tested on: S. aureus ATCC 33591 (Sa91); assay: Minimal inhibitory concentration (MIC) assay; type: cell-based; conditions: Staphylococcus aureus, ATCC33591; S. aureus ATCC 33591, antibiotic-resistant strain; read-out: Antimicrobial activity (MIC) Sa91
How it was run: as §1

[9] = tested on: B. subtilis ATCC 6623 (Bs); assay: Minimal inhibitory concentration (MIC) assay; type: cell-based; conditions: Bacillus subtilis, ATCC6623; B. subtilis ATCC 6623; read-out: Antimicrobial activity (MIC) Bs
How it was run: as §1

OVCAR-5 = assay: NCI-60 cancer screen; type: cell-based, human; conditions: OVCAR-5, Ovarian Cancer; 10 μM
UACC-62 = assay: NCI-60 cancer screen; type: cell-based, human; conditions: UACC-62, Melanoma; 10 μM
HOP-92 = assay: NCI-60 cancer screen; type: cell-based, human; conditions: HOP-92, Non-Small Cell Lung Cancer; 10 μM
LOX IMVI = assay: NCI-60 cancer screen; type: cell-based, human; conditions: Melanoma, 10 μM
UO-31 = assay: NCI-60 cancer screen; type: cell-based, human; conditions: UO-31, Renal Cancer; 10 μM
SF-539 = assay: NCI-60 cancer screen; type: cell-based, human; conditions: SF-539, CNS Cancer; 10 μM
NCI/ADR-RES = assay: NCI-60 cancer screen; type: cell-based, human; conditions: Ovarian Cancer, 10 μM
SK-MEL-5 = assay: NCI-60 cancer screen; type: cell-based, human; conditions: SK-MEL-5, Melanoma; 10 μM
SF-268 = assay: NCI-60 cancer screen; type: cell-based, human; conditions: SF-268, CNS Cancer; 10 μM
NCI-H23 = assay: NCI-60 cancer screen; type: cell-based, human; conditions: NCI-H23, Non-Small Cell Lung Cancer; 10 μM
HOP-62 = assay: NCI-60 cancer screen; type: cell-based, human; conditions: HOP-62, Non-Small Cell Lung Cancer; 10 μM
OVCAR-8 = assay: NCI-60 cancer screen; type: cell-based, human; conditions: OVCAR-8, Ovarian Cancer; 10 μM
UACC-257 = assay: NCI-60 cancer screen; type: cell-based, human; conditions: UACC-257, Melanoma; 10 μM
HCT-116 = assay: NCI-60 cancer screen; type: cell-based, human; conditions: HCT-116, Colon Cancer; 10 μM
A549/ATCC = assay: NCI-60 cancer screen; type: cell-based, human; conditions: Non-Small Cell Lung Cancer, 10 μM
NCI-H522 = assay: NCI-60 cancer screen; type: cell-based, human; conditions: NCI-H522, Non-Small Cell Lung Cancer; 10 μM
HCT-15 = assay: NCI-60 cancer screen; type: cell-based, human; conditions: HCT-15, Colon Cancer; 10 μM
NCI-H460 = assay: NCI-60 cancer screen; type: cell-based, human; conditions: NCI-H460, Non-Small Cell Lung Cancer; 10 μM
SR = assay: NCI-60 cancer screen; type: cell-based, human; conditions: Leukemia, 10 μM
SK-MEL-2 = assay: NCI-60 cancer screen; type: cell-based, human; conditions: SK-MEL-2, Melanoma; 10 μM
EKVX = assay: NCI-60 cancer screen; type: cell-based, human; conditions: Non-Small Cell Lung Cancer, 10 μM

SMILES: C=C(C)[C@@H]1CC=C2c3sc(-c4ccc(O)cc4)nc3C[C@@H](C)[C@]2(C)C1 [Compound 15, 4-[(5R,5aS,7R)-7-isopropenyl-5,5a-dimethyl-5,6,7,8-tetrahydro-4H-benzo[g][1,3]benzothiazol-2-yl]phenol]
- Growth Percent (SF-295): 92.61%
- Growth Percent (DU-145): 104.97%
- Growth Percent (TK-10): 118.28%
- Growth Percent (BT-549): 115.53%
- MIC [1]: 6.25 µg/mL (≈ 17.8 µM)
- MIC [2]: 6.25 µg/mL (≈ 17.8 µM)
- MIC [3]: 12.5 µg/mL (≈ 35.6 µM)
- MIC [4]: 12.5 µg/mL (≈ 35.6 µM)
- Antimicrobial activity (MIC) Em21 ([5]; Enterococcus faecium ATCC 700221): 3.12 µg/mL
- MIC ([5]; Enterococcus faecium, ATCC700221, Enterococcus faecium ATCC 700221, read-out: Antimicrobial activity (MIC) Em21): 3.12 µg/mL (≈ 8.89 µM)
- MIC [6]: > 100 µg/mL
- MIC [7]: 12.5 µg/mL (≈ 35.6 µM)
- MIC [8]: 6.2 µg/mL (≈ 17.6 µM)
- MIC [9]: 6.25 µg/mL (≈ 17.8 µM)
- Growth Percent (OVCAR-5): 106.63%
- Growth Percent (UACC-62): 93.02%
- Growth Percent (HOP-92): 96.54%
- Growth Percent (LOX IMVI): 101.88%
- Growth Percent (UO-31): 88.19%
- Growth Percent (SF-539): 101.06%
- Growth Percent (NCI/ADR-RES): 105.66%
- Growth Percent (SK-MEL-5): 99.11%
- Growth Percent (SF-268): 100.98%
- Growth Percent (NCI-H23): 94.71%
- Growth Percent (HOP-62): 95.96%
- Growth Percent (OVCAR-8): 98.85%
- Growth Percent (UACC-257): 100.07%
- Growth Percent (HCT-116): 114.01%
- Growth Percent (A549/ATCC): 95.55%
- Growth Percent (NCI-H522): 92.28%
- Growth Percent (HCT-15): 100.28%
- Growth Percent (NCI-H460): 104.69%
- Growth Percent (SR): 113.66%
- Growth Percent (SK-MEL-2): 104.08%
- Growth Percent (EKVX): 101.37%
